Experimental data reported in patent US20060269924A1, “Modulation of telomere-initiated cell signaling” (TRUSTEES OF BOSTON UNIVERSITY, priority 2003, published 2006).
{P} = phosphate

Legend:
[1] = tested on: human fibrosarcoma HT-1080 cells; test: SA-β-Gal staining, HT-1080 cells; format: cell-based
Protocol: (§1) FIG. 13a: Exposure to T-oligo increases SA-β-Gal activity. HT-1080 cells were treated for 4 days with diluent alone or 40 μM T-oligo or the complementary control oligo, then stained and assayed for SA-β-Gal activity. FIG. 13b: Quantitative analysis of SA-β-Gal positive cells. Cells expressing SA-β-Gal activity were counted and presented as percentage of total cells in the cultures. Averages and standard deviations were calculated from 3 representative fields from each of 3 independent experiments. FIG. 13c: Effect of T-oligo on cell proliferation. Cells were treated for 4 days as in FIG. 12 and assayed for DNA synthesis by BrdU incorporation. FIG. 13d: Quantitative analysis of BrdU incorporation. Dark black nuclei indicate BrdU incorporated into nuclear DNA. BrdU positive cells were calculated and presented as percentage of total cells in the cultures. Averages and standard deviations were calculated from 3 representative fields from each of 3 independent experiments. FIG. 13e: Effect of T-oligo on pRb phosphorylation. Cells were treated as in FIG. 13a and were then collected for protein analysis by western blot using 30 μg total protein and probed for pRb-ser780*, ser795* and ser807/811* (pRb phosphorylated at serine 780, serine 795 and serine 807/811 respectively). Lanes D, T and C contain protein samples from cells treated with diluent, T-oligo and complementary oligo respectively. β-actin was used as a loading control.
Parallel cultures were treated as described in FIG. 13a. Cells were then washed once with PBS and refed with complete medium without additional treatment for 24 hours or 48 hours. FIG. 14a: SA-β-Gal activity. Cells were stained for SA-β-Gal activity. […]
TRF2^DN has been reported to induce a senescent phenotype in human fibrosarcoma HT-1080 cells. To determine whether exposure to the telomere 3′ overhang DNA (T-oligo) also induces senescence in these cells, HT-1080 cells (American Type Culture Collection; Manassas, Va.) were treated with either diluent alone, T-oligo or the complementary oligo as a control, for 4 days and then assessed for SA-β-Gal activity. […]

p53 phosphoserine 37 = test: Western blot for p53 phosphoserine 37; format: cell-based; settings: normal neonatal fibroblasts, 40 μM
Protocol: Western blot analysis was performed on normal neonatal cells using a antibody specific for p53 phosphoserine 37 after being treated with either diluent or 40 μM for the indicated times.
Normal neonatal fibroblasts were treated with either diluent or 40 μM (11mer-1) for 4, 6, 8, 19, 24 and 48 hours and then collected for Western blot analysis using an antibody specific for p53 phosphoserine 37. Sham and IR-irradiated (10 Gy) fibroblasts were used used as negative and positive controls, respectively.

[2] = tested on: HT-1080 fibrosarcoma cells; test: BrdU incorporation assay, HT-1080 cells; format: cell-based, human
Protocol: as §1
Parallel cultures were treated as described in FIG. 13a. Cells were then washed once with PBS and refed with complete medium without additional treatment for 24 hours or 48 hours. FIG. 14a: SA-β-Gal activity. […]
HT-1080 fibrosarcoma cells cultured on Permanox chamber slides were treated with diluent, 40 μM T-oligo or 40 μM complementary oligo for 4 days and DNA synthesis was assayed using 5-bromo-2′-deoxy-uridine (BrdU) Labeling and Detection Kit II (Roche Molecular Biochemicals, Indianapolis, Ind.) following the protocol supplied by the manufacturer. […] After incubation with anti-mouse-Ig-alkaline phosphatase, the color reaction was detected by light microscopy. […]

fibroblasts = test: Degradation of the telomere 3′ overhang in fibroblasts; format: cell-based; settings: up to 1 week (data not shown)
[3] = tested on: HT-1080 human fibrosarcoma cells; test: Clonogenic assay; format: cell-based; settings: HT-1080, 40 μM for one week, then replated 2 weeks without treatment
Protocol: Cells were treated with diluent, 40 μM T-oligo or complementary oligo for one week, and then assayed. FIG. 15a: Appearance of stained dishes. FIG. 15b: Quantification of clonogenic capacity. Colonies of triplicate cultures were counted and plotted as percentage of diluent treated control.
Human fibrosarcoma cells were treated with diluent alone, 40 μM T-oligo or 40 μM complementary oligo for one week and were then trypsinized and counted. 300 cells were seeded into 60 mm culture dishes in triplicate and then incubated in complete medium for 2 weeks with medium changed twice per week. Subsequently, the cells were fixed for 5 min in 100% methanol. The methanol was then removed and the culture dishes were rinsed briefly with water. The colonies were stained for 10 min in 4% (w/v) methylene blue solution in PBS, washed once again with water, and then counted.
To determine the long-term effect of T-oligo treatment on cell growth, HT-1080 human fibrosarcoma cells were treated with either diluent alone, 40 μM T-oligo or 40 μM complementary control oligo for one week and then an equal number of cells were replated and medium was changed twice per week for 2 weeks with no further treatment, and then stained with methylene blue (FIG. 15a).

[4] = HT-1080, 4 days 40 μM, then 1 and 2 days fresh medium without oligonucleotide

Substance: pGTTAGGGTTAG (DNA, 5' {P}, backbone not given here; listed as Homo sapiens) [Oligonucleotide 11mer-1]
- SA-β-Gal activity after removal of oligo [1, 4]: increase in SA-β-Gal activity
- SA-β-Gal positive cells ([1]; HT-1080 cells, 40 μM, 4 days): 80±7%
- p53 serine 37 phosphorylation (band intensity vs diluent) (p53 phosphoserine 37; 8 hours): detected
- p53 serine 37 phosphorylation (band intensity vs diluent) (p53 phosphoserine 37; 48 hours): very prominent
- DNA synthesis (BrdU) after removal of oligo [2, 4]: did not resume DNA synthesis
- BrdU incorporation (BrdU positive cells) ([2]; HT-1080 cells, 40 μM, 4 days): 7±2%
- degradation of the telomere 3′ overhang (fibroblasts): does not result in degradation
- clonogenic capacity [3]: 5.7±1.9 % of diluent treated control
